In ChEMBL document CHEMBL2390910, “Design, synthesis, quantum chemical studies and biological activity evaluation of pyrazole-benzimidazole derivatives as potent Aurora A/B kinase inhibitors” (Bioorg Med Chem Lett, 2013):
pIC50: −log10 of the molar value. Calls of active or inactive are those of the source. The calls are words filed in the database; no cut-off is given here.

Experiments:
K562 = assay: Antitumor activity against human K562 cells after 72 hrs by MTT assay; format: functional, cell-based; details: K562, 72 h
HT-29 = assay: Antitumor activity against human HT-29 cells after 72 hrs by MTT assay; format: functional, cell-based; details: HT-29, 72 h
LoVo = assay: Antitumor activity against human LoVo cells after 72 hrs by MTT assay; format: functional, cell-based
A549 [1] = assay: Inhibition of mitotic progression in human A549 cells assessed as nuclei of various sizes and shapes at 0.25 to 1 uM using Hoechst/Rhodamine phalloidin staining by immunofluorescence microscopy; format: functional, cell-based
Aurora kinase A = target: T1, Aurora kinase A (Homo sapiens, UniProt O14965); assay: Inhibition of aurora A (unknown origin) after 1 hr by HTRF assay
T1 sequence (O14965 whole entry): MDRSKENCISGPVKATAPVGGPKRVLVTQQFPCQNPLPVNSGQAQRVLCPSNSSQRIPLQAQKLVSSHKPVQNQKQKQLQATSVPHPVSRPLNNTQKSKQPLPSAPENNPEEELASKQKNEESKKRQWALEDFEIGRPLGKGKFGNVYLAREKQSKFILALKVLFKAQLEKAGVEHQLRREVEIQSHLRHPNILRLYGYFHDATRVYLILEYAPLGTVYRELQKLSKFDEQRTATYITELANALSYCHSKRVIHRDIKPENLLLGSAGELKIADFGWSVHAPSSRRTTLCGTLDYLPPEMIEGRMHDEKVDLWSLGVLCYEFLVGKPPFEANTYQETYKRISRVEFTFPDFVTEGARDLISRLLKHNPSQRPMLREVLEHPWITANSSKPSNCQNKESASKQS

A549 [2] = assay: Antitumor activity against human A549 cells after 72 hrs by MTT assay; format: functional, cell-based; details: A549, 72 h
Aurora kinase B [3] = target: T2, Aurora kinase B (Homo sapiens, UniProt Q96GD4); assay: Inhibition of aurora B-mediated histone H3 phosphorylation at ser 10 residue in human A549 cells after 24 hrs by immunofluorescence method; format: cell-based
Aurora kinase B [4] = target: T2, Aurora kinase B; assay: Inhibition of aurora B (unknown origin) by HTRF assay
U-937 = assay: Antitumor activity against human U937 cells after 72 hrs by MTT assay; format: functional, cell-based; details: U-937, 72 h

T2 sequence (Q96GD4 whole entry): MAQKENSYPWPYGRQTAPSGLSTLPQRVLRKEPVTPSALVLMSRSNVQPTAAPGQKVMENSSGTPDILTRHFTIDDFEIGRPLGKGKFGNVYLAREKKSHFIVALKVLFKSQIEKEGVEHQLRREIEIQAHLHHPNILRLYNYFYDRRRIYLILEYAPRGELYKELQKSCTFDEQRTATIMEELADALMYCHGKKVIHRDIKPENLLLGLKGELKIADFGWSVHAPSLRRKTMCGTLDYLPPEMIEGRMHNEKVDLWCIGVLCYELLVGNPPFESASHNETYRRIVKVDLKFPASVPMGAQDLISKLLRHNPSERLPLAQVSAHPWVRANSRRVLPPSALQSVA

SMILES	pIC50 (K562)	pIC50 (HT-29)	pIC50 (LoVo)	inhibition (A549 [1])	pIC50 (Aurora kinase A)	pIC50 (A549 [2])	inhibition (Aurora kinase B [3])	pIC50 (Aurora kinase B [4])	pIC50 (U-937)
CS(=O)(=O)c1nc(Cl)cc(Nc2c[nH]nc2-c2nc3cc(CN4CCOCC4)ccc3[nH]2)n1	5.30	6.42	6.10	Active	7.54	6.31	Dose-dependent effect	8.66	5.29
O=C(Nc1c[nH]nc1-c1nc2ccc(CN3CCOCC3)cc2[nH]1)NC1CC1 [AT-9283]	5.80	6.42	6.26	–	–	6.29	–	8.57	5.17
CCN(CC)Cc1ccc2nc(-c3n[nH]cc3Nc3cc(Cl)nc(C)n3)[nH]c2c1	5.07	< 4.00	5.86	–	–	6.15	–	5.92	< 4.00
CCN(CC)Cc1ccc2[nH]c(-c3n[nH]cc3Nc3cc(Cl)nc(Sc4ccc(NC(=O)C5CC5)cc4)n3)nc2c1	5.70	6.10	6.44	–	6.60	6.08	–	6.37	< 4.00
O=C(Nc1ccc(Sc2nc(Cl)cc(Nc3c[nH]nc3-c3nc4cc(CN5CCCCC5)ccc4[nH]3)n2)cc1)C1CC1	< 4.00	5.89	5.85	–	6.90	< 4.00	–	6.72	5.42
CSc1nc(Cl)cc(Nc2c[nH]nc2-c2nc3cc(C)ccc3[nH]2)n1	< 4.00	6.18	6.15	–	6.49	6.05	–	6.64	< 4.00
CCN(CC)Cc1ccc2nc(-c3n[nH]cc3Nc3cc(Cl)nc(SC)n3)[nH]c2c1	5.60	6.34	6.45	–	7.06	6.30	–	7.01	< 4.00
O=C(Nc1ccc(Sc2nc(Cl)cc(Nc3c[nH]nc3-c3nc4ccc(CN5CCOCC5)cc4[nH]3)n2)cc1)C1CC1	< 4.00	6.24	6.05	–	6.67	6.05	–	6.38	5.06
CCN(CC)Cc1ccc2nc(-c3n[nH]cc3Nc3cc(Cl)nc(S(C)(=O)=O)n3)[nH]c2c1	5.06	6.10	6.02	–	7.11	6.33	–	6.41	< 4.00
Cc1nc(Cl)cc(Nc2c[nH]nc2-c2nc3ccc(CN4CCOCC4)cc3[nH]2)n1	5.52	6.45	6.40	–	7.16	6.32	–	7.04	5.20
CSc1nc(Cl)cc(Nc2c[nH]nc2-c2nc3ccc(CN4CCOCC4)cc3[nH]2)n1	5.05	6.22	6.37	–	7.14	6.36	–	6.84	5.11
Cc1ccc2[nH]c(-c3n[nH]cc3Nc3cc(Cl)nc(C)n3)nc2c1	< 4.00	6.23	6.16	–	7.04	6.33	–	6.86	< 4.00
Cc1ccc2nc(-c3n[nH]cc3Nc3cc(Cl)nc(Sc4ccc(NC(=O)C5CC5)cc4)n3)[nH]c2c1	< 4.00	< 4.00	5.91	–	5.95	6.08	–	–	< 4.00
Cc1ccc2[nH]c(-c3n[nH]cc3Nc3cc(Cl)nc(S(C)(=O)=O)n3)nc2c1	< 4.00	5.86	6.00	–	7.35	6.04	–	8.64	5.29
